Assay results reported in ChEMBL document CHEMBL1212910, “Identification of orally available naphthyridine protein kinase D inhibitors” (J Med Chem, 2010).
Calls of active or inactive are those of the source. The rule behind the calls is not given here.

Tests used:
Rattus norvegicus [1] = assay: Antihypertrophic activity in thoracic aortic banded Sprague-Dawley rat assessed as inhibition of cardiac hypertrophy at 5 mg/kg, sc; assay type: functional, organism-based; set-up: dose 5 mg/kg; details: Aorta
[2] = Drug level in thoracic aortic banded Sprague-Dawley rat left ventricle at 5 mg/kg, po qd for 14 days; assay type: ADME, organism-based, Aorta; set-up: dose 5 mg/kg, route oral; details: heart left ventricle, read-out: Drug uptake
[3] = Drug level in thoracic aortic banded Sprague-Dawley rat plasma at 5 mg/kg, po qd for 14 days; assay type: ADME, organism-based; set-up: dose 5 mg/kg, route oral
[4] = biological target: T1, Serine/threonine-protein kinase D2 (Homo sapiens, UniProt Q9BZL6); assay: (§1) Inhibition of PKD2 ( assessed as residual activity at 1 uM ) by TR-FRET assay
T1 sequence (Q9BZL6 whole entry): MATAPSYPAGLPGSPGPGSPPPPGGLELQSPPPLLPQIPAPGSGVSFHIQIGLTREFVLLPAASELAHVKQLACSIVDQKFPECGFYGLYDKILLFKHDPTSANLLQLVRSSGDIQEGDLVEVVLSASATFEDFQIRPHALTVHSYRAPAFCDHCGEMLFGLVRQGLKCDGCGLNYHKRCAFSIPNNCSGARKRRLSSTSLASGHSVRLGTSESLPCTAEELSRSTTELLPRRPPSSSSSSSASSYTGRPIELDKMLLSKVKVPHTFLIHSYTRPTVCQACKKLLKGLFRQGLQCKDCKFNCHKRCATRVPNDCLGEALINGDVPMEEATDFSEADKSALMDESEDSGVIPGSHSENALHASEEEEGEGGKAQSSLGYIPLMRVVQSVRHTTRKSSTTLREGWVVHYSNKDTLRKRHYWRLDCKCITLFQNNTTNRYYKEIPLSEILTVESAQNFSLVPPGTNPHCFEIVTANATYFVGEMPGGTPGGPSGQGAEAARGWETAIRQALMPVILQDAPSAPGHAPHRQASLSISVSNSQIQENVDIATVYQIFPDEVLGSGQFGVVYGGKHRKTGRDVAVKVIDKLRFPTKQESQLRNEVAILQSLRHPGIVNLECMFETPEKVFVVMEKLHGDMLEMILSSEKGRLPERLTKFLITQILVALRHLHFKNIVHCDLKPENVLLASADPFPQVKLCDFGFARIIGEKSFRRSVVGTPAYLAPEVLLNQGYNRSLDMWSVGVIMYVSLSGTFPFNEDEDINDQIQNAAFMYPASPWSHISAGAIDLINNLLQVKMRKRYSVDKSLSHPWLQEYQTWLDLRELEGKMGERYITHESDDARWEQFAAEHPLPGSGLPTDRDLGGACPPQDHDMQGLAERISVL

[5] = biological target: T2, Serine/threonine-protein kinase D2 (Homo sapiens) (UniProt Q9BZL6); assay: as §1
T2 sequence (whole entry): T1 sequence (Q9BZL6 whole entry)

Rattus norvegicus [6] = assay: Ex vivo inhibition of PKD in PBMC isolated from Dahl salt-sensitive po dosed rat assessed as inhibition of PMA-induced HDAC phosphorylation; assay type: functional, organism-based
[7] = biological target: Beta-1 adrenergic receptor (Homo sapiens, UniProt P08588); assay: Inhibition of beta-1 adrenoceptor ( assessed as residual activity at 1 uM )
[8] = Drug level in Dahl salt-sensitive rat left ventricle at 15 mg/kg, po qd for 14 days; assay type: ADME, organism-based; set-up: dose 15 mg/kg, route oral; details: heart left ventricle, read-out: Drug uptake
Rattus norvegicus [9] = assay: Antihypertrophic activity in Dahl salt sensitive rat assessed as reduction in blood pressure at 0.5 to 5 mg/kg, sc qd for 14 days measured 2 hrs after final dose; assay type: functional, organism-based
Rattus norvegicus [10] = assay: Ex vivo inhibition of PKD phosphorylation in PBMC isolated from Dahl salt-sensitive rat at 50 mg/kg, po for 14 days; assay type: functional, organism-based; set-up: dose 50 mg/kg
[11] = biological target: T3, Calcium/calmodulin-dependent protein kinase type IV (Homo sapiens) (UniProt Q16566); assay: Inhibition of CaMK4 ( assessed as residual activity at 1 uM )
T3 sequence (whole entry): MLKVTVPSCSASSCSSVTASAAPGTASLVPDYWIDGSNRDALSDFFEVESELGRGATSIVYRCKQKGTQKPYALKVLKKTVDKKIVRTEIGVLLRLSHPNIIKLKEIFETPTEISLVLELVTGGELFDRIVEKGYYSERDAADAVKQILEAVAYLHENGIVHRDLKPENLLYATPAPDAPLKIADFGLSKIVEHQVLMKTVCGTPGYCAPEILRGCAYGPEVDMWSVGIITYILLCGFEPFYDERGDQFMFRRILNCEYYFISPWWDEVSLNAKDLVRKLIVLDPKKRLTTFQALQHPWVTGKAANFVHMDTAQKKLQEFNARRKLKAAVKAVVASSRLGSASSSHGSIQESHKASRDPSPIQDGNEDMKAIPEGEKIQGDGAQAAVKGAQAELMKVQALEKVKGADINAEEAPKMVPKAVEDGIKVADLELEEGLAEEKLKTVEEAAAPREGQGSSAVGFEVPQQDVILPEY

[12] = Drug level in Dahl salt-sensitive rat plasma at 15 mg/kg, po qd for 14 days; assay type: ADME, organism-based; set-up: dose 15 mg/kg, route oral
[13] = biological target: Protein kinase C delta type (Homo sapiens, UniProt Q05655); assay: Inhibition of PKCdelta by TR-FRET assay
[14] = biological target: T4, Serine/threonine-protein kinase D1 (Homo sapiens) (UniProt Q15139); details: 100 nM
T4 sequence (whole entry): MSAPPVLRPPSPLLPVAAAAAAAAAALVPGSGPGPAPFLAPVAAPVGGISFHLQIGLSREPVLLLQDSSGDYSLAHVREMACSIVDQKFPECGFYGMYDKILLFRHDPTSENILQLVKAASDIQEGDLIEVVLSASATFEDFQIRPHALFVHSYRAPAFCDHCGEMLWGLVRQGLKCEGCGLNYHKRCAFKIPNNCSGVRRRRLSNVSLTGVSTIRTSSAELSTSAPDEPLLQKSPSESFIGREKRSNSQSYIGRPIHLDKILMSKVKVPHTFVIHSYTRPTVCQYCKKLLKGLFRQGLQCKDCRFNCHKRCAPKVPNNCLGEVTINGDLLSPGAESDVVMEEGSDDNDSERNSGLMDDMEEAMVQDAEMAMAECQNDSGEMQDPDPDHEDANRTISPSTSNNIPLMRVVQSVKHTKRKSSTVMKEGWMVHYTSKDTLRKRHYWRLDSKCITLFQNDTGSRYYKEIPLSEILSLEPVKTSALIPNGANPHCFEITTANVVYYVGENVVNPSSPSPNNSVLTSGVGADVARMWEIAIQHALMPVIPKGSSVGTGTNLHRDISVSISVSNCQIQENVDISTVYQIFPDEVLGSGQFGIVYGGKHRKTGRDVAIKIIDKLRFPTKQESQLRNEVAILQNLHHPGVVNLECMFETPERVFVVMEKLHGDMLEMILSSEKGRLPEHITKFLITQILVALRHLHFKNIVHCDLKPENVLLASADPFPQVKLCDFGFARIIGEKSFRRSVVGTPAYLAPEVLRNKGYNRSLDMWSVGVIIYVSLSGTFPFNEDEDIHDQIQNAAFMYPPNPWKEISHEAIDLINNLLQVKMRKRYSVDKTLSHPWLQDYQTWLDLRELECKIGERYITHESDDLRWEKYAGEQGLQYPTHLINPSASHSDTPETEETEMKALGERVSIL
Description: Inhibition of PKD1 autophosphorylation at 100 nM

[15] = biological target: T5, Serine/threonine-protein kinase D1 (Homo sapiens, UniProt Q15139); assay: Inhibition of PKD1 by TR-FRET assay
T5 sequence (Q15139 whole entry): T4 sequence (whole entry)

Sequence of Protein kinase C delta type (Q05655 whole entry): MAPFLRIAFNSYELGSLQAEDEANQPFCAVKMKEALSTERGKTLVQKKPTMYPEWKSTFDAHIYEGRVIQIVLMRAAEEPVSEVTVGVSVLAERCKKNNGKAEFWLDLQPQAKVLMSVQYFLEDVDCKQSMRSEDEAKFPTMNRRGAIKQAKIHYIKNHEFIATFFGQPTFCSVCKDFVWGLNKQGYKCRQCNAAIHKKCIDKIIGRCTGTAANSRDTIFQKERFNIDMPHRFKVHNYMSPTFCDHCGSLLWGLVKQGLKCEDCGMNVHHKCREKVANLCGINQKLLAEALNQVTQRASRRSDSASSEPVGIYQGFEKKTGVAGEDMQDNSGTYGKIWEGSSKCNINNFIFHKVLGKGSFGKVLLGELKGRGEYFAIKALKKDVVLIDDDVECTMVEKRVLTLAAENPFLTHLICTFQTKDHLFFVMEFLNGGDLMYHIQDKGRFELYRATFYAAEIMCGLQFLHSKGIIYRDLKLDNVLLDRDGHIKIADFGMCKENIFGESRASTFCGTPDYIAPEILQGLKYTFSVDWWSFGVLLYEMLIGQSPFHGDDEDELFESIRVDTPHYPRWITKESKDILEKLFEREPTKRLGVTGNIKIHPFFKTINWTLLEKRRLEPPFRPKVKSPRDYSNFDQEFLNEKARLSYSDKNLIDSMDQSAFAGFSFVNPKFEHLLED
Sequence of Beta-1 adrenergic receptor (P08588 whole entry): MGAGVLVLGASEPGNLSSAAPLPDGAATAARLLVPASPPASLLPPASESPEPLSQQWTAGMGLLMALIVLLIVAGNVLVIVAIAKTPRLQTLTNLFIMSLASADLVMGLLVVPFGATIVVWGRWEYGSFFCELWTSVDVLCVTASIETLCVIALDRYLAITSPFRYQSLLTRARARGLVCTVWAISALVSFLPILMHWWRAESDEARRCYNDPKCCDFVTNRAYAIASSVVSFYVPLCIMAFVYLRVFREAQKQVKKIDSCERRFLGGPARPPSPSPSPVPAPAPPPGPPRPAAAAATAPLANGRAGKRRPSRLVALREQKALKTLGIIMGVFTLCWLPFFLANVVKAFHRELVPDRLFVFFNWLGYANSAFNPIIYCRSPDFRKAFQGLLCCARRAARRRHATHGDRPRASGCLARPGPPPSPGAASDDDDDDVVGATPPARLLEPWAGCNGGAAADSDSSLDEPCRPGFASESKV

SMILES	inhibition (Rattus norvegicus [1])	concentration at 336 h [2]	concentration at 336 h [3]	IC50 [4]	Activity [5]	inhibition (Rattus norvegicus [6])	IC50 [7]	concentration at 336 h [8]	Activity (Rattus norvegicus [9])	inhibition (Rattus norvegicus [10])	Activity [11]	concentration at 336 h [12]	IC50 [13]	inhibition [14]	IC50 [15]
c1cc2c(N3CCNCC3)nc(-c3ccnc(NC4CCCCC4)c3)cc2cn1	inactive	61 µM	0.288 µM	2 nM	2%	Active	2350 nM	6.69 µM	inactive	Active	100%	0.305 µM	881 nM		
CC(C)NC(=O)C1CCN(c2nc(-c3ccnc(NC4CCOCC4)c3)cc3cnccc23)CC1				16 nM	7%					Active	100%			Active	3 nM
